The assay relates to SJL mice. Nature of the assay: PLP139-151-induced R-EAE model, clinical score and relapse. In kind it is in vivo, mouse. The procedure:
For PLP139-151-induced R-EAE, 6- to 7-wk-old female SJL mice were immunized s.c. with 100 μL of an emulsion containing 200 μg of M. tuberculosis H37Ra and 50 μg of […] (HSLGKWLGHPDKF) (SEQ ID NO:139) distributed over three spots on the flank. Individual animals were observed daily and clinical scores assessed in a blinded fashion on a 0-5 scale as shown in Table 11 (Miller, et al., Curr. Protocols Immulo., Chapter 12, Unit 15.1). Unless otherwise mentioned, all mice were age and sex-matched for all experiments.
Mice were randomly divided into four groups. For the disease prevention model, B7-H4-Ig or control IgG at 3 mg/kg was injected intraperitoneally (i.p.) on the same day as PLP130-151 priming. For the therapeutic model, B7-H4-Ig or control IgG at 3 mg/kg was given i.p. beginning on approximately Day 21 post PLP130-151 priming. In both cases, B7-H4-Ig was administrated, 3 times a week, for 2-4 weeks.
To determine the therapeutic benefit of B7-H4-Ig, murine B7-H4-Ig was tested in the PLP139-151-induced R-EAE mouse model both for prevention of disease (treatment begun on the same day of disease induction) and therapeutic intervention (treatment begun during the disease remission) settings (FIG. 33). In both cases the disease course was followed for about 2 months to assess clinical disease following the grading system shown in […].
Female SJL mice were first immunized with PLP139-151 peptide emulsified in CFA and then randomized into 2 groups for either prevention or therapeutic treatment. For each treatment regimen there were 2 subgroups, with one subgroup receiving Control IgG and the other subgroup receiving murine B7-H4-Ig. Both Control IgG and murine B7-H4-Ig were given at 3 mg/kg, 3 times a week for 4 weeks. Prevention treatment (FIG. 34) means that murine B7-H4-Ig or Control IgG was administered starting on the day at PLP immunization (t=0). Therapeutic treatment (FIG. 35) means that murine B7-H4-Ig or Control IgG was administered beginning on Day 21 (t=21). The data is presented as the mean clinical score over the 55 day time course with 5 mice per group, and the clinical scores and injection were conducted double blinded.
The effect of B7-H4-Ig treatment on the number of Treg cells in vivo was analyzed in this study. The effect of B7-H4-Ig on the number and phenotype of CD4^+ T cells infiltrating into the CNS following B7-H4-Ig treatment, the relevant site for activity in vivo, was determined. […] SJL mice were first immunized with PLP139-151 peptide. B7-H4-Ig treatment started during remission (Day 23). Mice received mouse Control IgG, 100 μg, or B7-H4-Ig at either 60 or 300 μg, 3 times per week for 2 weeks or 4 weeks. Half of the animals (5 mice from each group) were euthanized on Day 35, after 6 doses of B7-H4-Ig. The rest of the animals (5 mice from each group) were euthanized on Day 50, after 12 doses of B7-H4-Ig. Mouse spleens, draining lymph nodes, spinal cords and brains were collected, tissues were made into a single cell suspension and counted via the use of a hemocytometer, and analyzed for the presence of effector/memory CD4^+ T cells (CD4^+CD44^+) and Treg cells (CD4^+CD25^+FoxP3^+). Whole cerebellar and lumbar spinal cord tissue samples were snap frozen and processed as described above to analyze the number of CD4^+ and FoxP3^+ cells present within the CNS by histology.
Human B7-H4-Ig was also tested for its therapeutic efficacy in the PLP139-151-induced R-EAE mouse model. […]

As for “B7-H4-Ig: B7-H4 extracellular domain fused to Ig Fc; bare label is the human protein in Example 3, murine protein in Examples 1, 2, 5, 7-11”, the “clinical scores (average), R-EAE” value (3 mg/kg i.p. 3 times a week for 4 weeks, preventative (t=0) and therapeutic (t=21) regimens, 0-5 scale (FIGS. 34, 35)) was 0-0.5. For the setting “1st in vivo study, treatment from the day of PLP139-151/CFA priming”, the “disease symptoms during the acute phase of R-EAE” value is recorded as “did not affect disease symptoms during the acute phase of R-EAE”. Moreover, the “mean clinical score, primary relapse” value (both 3 mg/kg (60 μg/dose) and 15 mg/kg (300 μg/dose), three times a week from day 23 (FIG. 46)) is given as “significantly prevented the primary relapsing”.
Consider “Human B7-H4-Ig: human B7-H4 extracellular domain fused to hinge, CH2 and CH3 regions of human immunoglobulin Cγ1 chain; representative SEQ ID NOs:114-137”, for which the “mean clinical score, primary disease relapse” value (5 or 25 mg/kg 3 times a week for 4 weeks from Day 23, vs Synagis (FIG. 48A)) is recorded as “reduction of mean clinical score”. Moreover, where the note is “5 or 25 mg/kg 3 times a week for 4 weeks from Day 23, vs Synagis (FIG. 48B)”, the long-term relapse rate entry was “reduction in long-term relapse rate”.

The values above are taken from US9011853B2, “B7-H4 fusion proteins and methods of use thereof” (Amplimmune, Inc., priority 2009, dated 2015).
